Values of other authors as cited in patent US20250325691A1, “HER2-GST-SN-38 COMPLEX, AND PHARMACEUTICAL COMPOSITION COMPRISING SAME FOR PREVENTING OR TREATING PROLIFERATIVE DISEASES” (priority 2022, published 2025).

Test system: various cancer cells
Details: various cancer cells in vitro; cited from earlier work

For `CCc1c2c(nc3ccc(O)cc13)-c1cc3c(c(=O)n1C2)COC(=O)[C@]3(O)CC` [SN-38, 7-ethyl-10-hydroxycamptothecin], the “cytotoxic activity, times more potent than irinotecan” value is given as “up to 1,000 times”.
